Measured values reported in US6512000B1, “Aminocarbonyl-substituted benzimidazoles having tryptase-inhibitory activity” (Boehringer Ingelheim Pharma KG, priority 1999, dated 2003).
Where a name gives a salt, the structure may show the parent alone.

target: T1, rh beta tryptase (Homo sapiens, UniProt P20231); test: Tryptase inhibition test (cleavage of N-p-tosyl-Gly-Pro-Lys-para-nitroaniline, p-nitroaniline measured at 405 nm); type: biochemical; conditions: concentration at which 50% of the tryptase enzyme activity is inhibited; substrate 0.6 mM, pH 7.4, 37° C.
T1 construct: purchased Promega
Method: The compounds according to the invention are characterised by their tryptase-inhibiting activity. This ability to inhibit tryptase was investigated using the test described below.
The measurement is carried out in Tris HCl buffer (100 mM), which additionally contains calcium (5 mM) and heparin ([…]), at pH 7.4. The standard used is rh beta tryptase which may be obtained commercially from Promega, for example. The substrate used is N-p-tosyl-Gly-Pro-Lys-para-nitroaniline in a concentration of 0.6 mM. The substrate is digested with tryptase to form p-nitroaniline which can be measured at 405 nm. Usually, an incubation period of 5 minutes and an incubation temperature of 37° C. are chosen. The enzyme activity used is 0.91 U/ml. The measurements are carried out in an Autoanalyser (Cobas Bio) made by Hofmann LaRoche. The potential inhibitory substances are used in concentrations of 10 μM in the screening, the inhibition of the tryptase being given in percent. The IC50 is determined at over 70% inhibition (concentration at which 50% of the enzyme activity is inhibited). After 5 minutes' pre-incubation of the potential inhibitory substances, the substrate is added to start the reaction, the formation of p-nitroaniline being taken as a measurement of the enzyme activity after 5 minutes, after testing the linearity.
The data obtained after the above test has been carried out (% inhibition) are assembled in Table 25 for the compounds according to the invention. The IC50 values obtained for the compounds according to the invention can be found in Table 26.
Table 26 contains the IC50 binding values obtained for the compounds according to the invention. These were measured as described above.

T1 sequence (P20231 31-275): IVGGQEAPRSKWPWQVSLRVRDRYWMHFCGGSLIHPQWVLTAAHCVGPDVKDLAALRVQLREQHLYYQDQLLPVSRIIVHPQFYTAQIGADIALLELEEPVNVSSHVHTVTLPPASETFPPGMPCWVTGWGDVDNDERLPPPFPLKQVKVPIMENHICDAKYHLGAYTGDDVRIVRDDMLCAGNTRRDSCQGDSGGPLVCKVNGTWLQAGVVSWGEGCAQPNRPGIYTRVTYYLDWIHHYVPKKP

Row | IC50 | Molecule
1 | 670 nM | CN(CCC(=N)N)C(=O)c1ccc2c(c1)nc(CCc1ccc(C(=N)N)cc1)n2C [Example 7, 2-[2-(4-Amidinophenyl)-ethyl]-1-methyl-benzimidazol-5-yl-carboxylic Acid-N-(2-amidinoethyl)-N-methyl-amide-dihydrochloride]
2 | 344 nM | N=C(N)c1ccc(CCc2nc3cc(C(=O)N(Cc4ccccc4)Cc4ccc(CN)cc4)ccc3n2CCc2ccccc2)cc1 [Example 107, 2-[2-(4-amidinophenyl)ethyl]-1-(2-phenylethyl)-benzimidazol-5-yl-carboxylic acid-N-[4-(amino-methyl)-benzyl]-N-benzyl-amide]
3 | 176 nM | Cn1c(CCc2ccc(C(=N)N)cc2)nc2cc(C(=O)N3CCN(C4CCCC4)CC3)ccc21 [Example 50, 2-[2-(4-Amidinophenyl)-ethyl]-1-methyl-benzimidazol-5-yl-carboxylic Acid-[N′-(cyclopentyl)-piperazide]]
4 | 431 nM | 2-[2-(4-amidinophenyl)ethyl]-1-cyclopropylmethyl-benzimidazol-5-yl-carboxylic acid-N-[4-(amino-methyl)-benzyl]-N-(3-pyridyl)-amide [Example 138]
5 | 231 nM | Cc1ccccc1N1CCN(C(=O)c2ccc3c(c2)nc(CCc2ccc(C(=N)N)cc2)n3C)CC1 [Example 51, 2-[2-(4-Amidinophenyl)-ethyl]-1-methyl-benzimidazol-5-yl-carboxylic Acid-[N′-(2-methylphenyl)-piperazide]]
6 | 152 nM | CC(C)Oc1cccc(N2CCN(C(=O)c3ccc4c(c3)nc(CCc3ccc(C(=N)N)cc3)n4C)CC2)c1 [Example 49, 2-[2-(4-Amidinophenyl)-ethyl]-1-methyl-benzimidazol-5-yl-carboxylic Acid-[N ′-(3-isopropyloxyphenyl)-piperazide]]
7 | 56 nM | CCc1cccc(N(CCC(=N)N)C(=O)c2ccc3c(c2)nc(CCc2ccc(C(=N)N)cc2)n3C)c1 [Example 22, 2-[2-(4-Amidinophenyl)-ethyl]-1-methyl-benzimidazol-5-yl-carboxylic Acid-N-(2-amidinoethyl)-N-(3-ethyl-phenyl)-amide-dihydrochloride]
8 | 168 nM | Cc1ccc(N(CCC(=N)N)C(=O)c2ccc3c(c2)nc(CCc2ccc(C(=N)N)cc2)n3C)cc1 [Example 26, 2-[2-(4-Amidinophenyl)-ethyl]-1-methyl-benzimidazol-5-yl-carboxylic Acid-N-(2-amidinoethyl)-N-(4-methyl-phenyl)-amide-dihydrochloride]
9 | 364 nM | CCOCCCn1c(CCc2ccc(C(=N)N)cc2)nc2cc(C(=O)N(CCN)Cc3ccc4ccccc4c3)ccc21 [Example 422, 2-[2-(4-amidinophenyl)ethyl]-1-(3-ethoxypropyl)-benzimidazol-5-yl-carboxyiic acid-N-(2-aminoethyl)-N-(2-naphthylmethyl)-amide]
10 | 479 nM | Cn1c(CCc2ccc(C(=N)N)cc2)nc2cc(C(=O)NCCCc3ccccc3)ccc21 [Example 12, 2-[2-(4-Amidinophenyl)-ethyl]-1-methyl-benzimidazol-5-yl-carboxylic Acid-N-(3-phenylpropyl)-amide-hydrochloride]
11 | 402 nM | CCOCCCn1c(CCc2ccc(C(=N)N)cc2)nc2cc(C(=O)N(CCN)Cc3cccc(C(F)(F)F)c3)ccc21 [Example 390, 2-[2-(4-amidinophenyl)ethyl]-1-(3-ethoxypropyl)-benzimidazol-5-yl-carboxylic acid-N-(2-aminoethyl)-N-(3-trifluoromethylbenzyl)-amide]
12 | 288 nM | 2-[2-(4-amidinophenyl)ethyl]-1-(3-ethoxypropyl)-benzimidazol-5-yl-carboxylic acid-N-(2-aminoethyl)-N-(3-pyridyl)-amide [Example 326]
13 | 140 nM | Cn1c(CCc2ccc(C(=N)N)cc2)nc2cc(C(=O)N(CCC(=N)N)Cc3ccccc3)ccc21 [Example 9, 2-[2-(4-Amidinophenyl)-ethyl]-1-methyl-benzimidazol-5-yl-carboxylic Acid-N-(2-amidinoethyl)-N-benzyl-amide-dihydrochloride]
14 | 86 nM | CC(C)CN(CCC(=N)N)C(=O)c1ccc2c(c1)nc(CCc1ccc(C(=N)N)cc1)n2C [Example 11, 2-[2-(4-Amidinophenyl)-ethyl]-1-methyl-benzimidazol-5-yl-carboxylic Acid-N-(2-amidinoethyl)-N-iso-butyl-amide-dihydrochloride]

same assay, conditions: inhibition of rh beta tryptase at 10 μM test substance; substrate N-p-tosyl-Gly-Pro-Lys-para-nitroaniline 0.6 mM, pH 7.4, 37° C., 5 minutes

Row | inhibition at 10 µM | % Inhibition (10 μM) | Molecule
15 | 65% |  | N=C(N)c1ccc(CCc2nc3cc(C(=O)N(Cc4ccccc4)Cc4ccc(CN)cc4)ccc3n2CCc2ccccc2)cc1 [Example 107, 2-[2-(4-amidinophenyl)ethyl]-1-(2-phenylethyl)-benzimidazol-5-yl-carboxylic acid-N-[4-(amino-methyl)-benzyl]-N-benzyl-amide]
16 | 64% |  | N=C(N)c1ccc(CCc2nc3cc(C(=O)N(Cc4ccc(CN)cc4)Cc4ccccc4F)ccc3n2CC2CCCO2)cc1 (stereo not drawn) [Example 226, 2-[2-(4-amidinophenyl)ethyl]-1-(tetrahydrofuran-2-yl-methyl)-benzimidazol-5-yl-carboxylic acid-N-[4-(amino-methyl)-benzyl]-N-(2-fluorobenzyl)-amide]
17 |  | 51% | 2-[2-(4-amidinophenyl)ethyl]-1-(2 thiophenyl-methyl)-benzimidazol-5-yl-carboxylic acid-N-[4-(amino-methyl)-benzyl]-N-(3-pyridyl)-amide [Example 147]
18 |  | 72% | 2-[2-(4-amidinophenyl)ethyl]-1-cyclopropylmethyl-benzimidazol-5-yl-carboxylic acid-N-[4-(amino-methyl)-benzyl]-N-(3-pyridyl)-amide [Example 138]
19 | 55% |  | CCCCN(CCN)C(=O)c1ccc2c(c1)nc(CCc1ccc(C(=N)N)cc1)n2CCc1ccc(Cl)cc1 [Example 284, 2-[2-(4-amidinophenyl)ethyl]-1-[2-(4-chlorophenyl)ethyl]-benzimidazol-5-yl-carboxylic acid-N-(2-aminoethyl)-N-n-butyl-amide]
20 |  | 56% | CCCCN(CCCC)CCCn1c(CCc2ccc(C(=N)N)cc2)nc2cc(C(=O)N(Cc3ccc(Cl)cc3)Cc3ccc(CN)cc3)ccc21 [Example 183, 2-[2-(4-amidinophenyl)ethyl]-1-(3-di-n-butylaminopropyl)-benzimidazol-5-yl-carboxylic acid-N-[4-(amino-methyl)-benzyl]-N-(4 chlorbenzyl)-amide]
21 | 58% |  | CCOCCCn1c(CCc2ccc(C(=N)N)cc2)nc2cc(C(=O)N(CCN)Cc3ccc4ccccc4c3)ccc21 [Example 422, 2-[2-(4-amidinophenyl)ethyl]-1-(3-ethoxypropyl)-benzimidazol-5-yl-carboxyiic acid-N-(2-aminoethyl)-N-(2-naphthylmethyl)-amide]
22 | 58% |  | N=C(N)c1ccc(CCc2nc3cc(C(=O)N(Cc4ccc(CN)cc4)Cc4ccc5ccccc5c4)ccc3n2CCCNC(=O)Cc2ccccc2)cc1 [Example 232, 2-[2-(4-amidinophenyl)ethyl]-1-[3-(benzylcarbonylamino)-propyl]-benzimidazol-5-yl-carboxylic acid-N-[4-(amino-methyl)-benzyl]-N-(2-naphthylmethyl)-amide]
23 | 57% |  | N=C(N)c1ccc(CCc2nc3cc(C(=O)N(Cc4ccc(CN)cc4)CC4CCCCC4)ccc3n2CCc2ccccc2)cc1 [Example 155, 2-[2-(4-amidinophenyl)ethyl]-1-(2-phenylethyl)-benzimidazol-5-yl-carboxylic acid-N-[4-(amino-methyl)-benzyl]-N-cyclohexylmethyl-amide]
24 |  | 74% | 2-[2-(4-amidinophenyl)ethyl]-1-[3-(benzylcarbonylamino)-propyl]-benzimidazol-5-yl-carboxylic acid-N-[4-(amino-methyl)-benzyl]-N-(2-pyridyl)-amide [Example 120]
25 |  | 59% | 2-[2-(4-amidinophenyl)ethyl]-1-(2-thiophenyl-methyl)-benzimidazol-5-yl-carboxylic acid-N-(2-aminoethyl)-N-(2-pyridyl)-amide [Example 323]
26 |  | 58% | 2-[2-(4-amidinophenyl)ethyl]-1-[3-(morpholin-4-yl)-propyl]-benzimidazol-5-yl-carboxylic acid-N-[4-(amino-methyl)-benzyl]-N-(2-fluorobenzyl)-amide [Example 225]
27 | 57% |  | N=C(N)c1ccc(CCc2nc3cc(C(=O)N(CCCc4ccccc4)Cc4ccc(CN)cc4)ccc3n2CC2CC2)cc1 [Example 170, 2-[2-(4-amidinophenyl)ethyl]-1-cyclopropylmethyl-benzimidazol-5-yl-carboxylic acid-N-[4-(amino-methyl)-benzyl]-N-(3-phenylpropyl)-amide]
28 | 60% |  | CCOCCCn1c(CCc2ccc(C(=N)N)cc2)nc2cc(C(=O)N(CCN)Cc3cccc(C(F)(F)F)c3)ccc21 [Example 390, 2-[2-(4-amidinophenyl)ethyl]-1-(3-ethoxypropyl)-benzimidazol-5-yl-carboxylic acid-N-(2-aminoethyl)-N-(3-trifluoromethylbenzyl)-amide]
29 |  | 51% | 2-[2-(4-amidinophenyl)ethyl]-1-(3-ethoxypropyl)-benzimidazol-5-yl-carboxylic acid-N-(2-aminoethyl)-N-(3-pyridyl)-amide [Example 326]
30 |  | 52% | 2-[2-(4-amidinophenyl)ethyl]-1-(2-cyclohexylethyl)-benzimidazol-5-yl-carboxylic acid-N-[4-(amino-methyl)-benzyl]-N-(2-pyridyl)-amide [Example 121]
31 |  | 70% | CCCCN(Cc1ccc(CN)cc1)C(=O)c1ccc2c(c1)nc(CCc1ccc(C(=N)N)cc1)n2CCCNC(=O)Cc1ccccc1 [Example 88]
32 |  | 55% | N=C(N)c1ccc(CCc2nc3cc(C(=O)N(CCN)Cc4ccc(Cl)cc4)ccc3n2Cc2cccs2)cc1 [Example 387, 2-[2-(4-amidinophenyl)ethyl]-1-(2-thiophenyl-methyl)-benzimidazol-5-yl-carboxylic acid-N-(2-aminoethyl)-N-(4-chlorbenzyl)-amide]
33 | 69% |  | COc1cccc(CN(Cc2ccc(CN)cc2)C(=O)c2ccc3c(c2)nc(CCc2ccc(C(=N)N)cc2)n3CCCN2CCOCC2)c1 [Example 81, 2-[2-(4-amidinophenyl)ethyl]-1-[3-(morpholin-4-yl)-propyl]-benzimidazol-5-yl-carboxylic acid-N-[4-(amino-methyl)-benzyl]-N-(3-methoxybenzyl)-amide]
